Assay [1] has as its target T1, human M2 receptor (Homo sapiens, UniProt P08172).
T1 construct: expressed in transfected cells; host or cells: CHO-DUKX (CHO-DUKX-M2-GIRK)
T1 sequence (P08172 1-466): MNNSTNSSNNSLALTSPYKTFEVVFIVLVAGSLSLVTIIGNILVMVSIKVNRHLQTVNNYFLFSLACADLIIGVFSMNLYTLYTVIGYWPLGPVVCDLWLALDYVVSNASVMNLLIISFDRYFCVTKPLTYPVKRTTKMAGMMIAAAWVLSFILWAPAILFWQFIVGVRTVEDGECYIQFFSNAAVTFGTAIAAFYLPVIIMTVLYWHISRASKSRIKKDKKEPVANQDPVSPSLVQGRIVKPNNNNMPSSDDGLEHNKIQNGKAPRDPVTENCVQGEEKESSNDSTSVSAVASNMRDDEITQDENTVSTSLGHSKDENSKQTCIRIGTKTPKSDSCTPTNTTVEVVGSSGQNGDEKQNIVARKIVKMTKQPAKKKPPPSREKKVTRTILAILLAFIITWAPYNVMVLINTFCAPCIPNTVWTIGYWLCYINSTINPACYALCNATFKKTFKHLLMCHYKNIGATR
The assay is described as follows: Functional M2-GIRK1/4 activation test: positive cooperativity (α factor), shift of acetylcholine dose-response curve. The format is cell-based. To be noted: Allosteric EC50 shift of acetylcholine 8-point dose-response curve; CHO-DUKX-M2-GIRK cells; α>1 = positive cooperativity. The procedure, abridged:
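CHO-DUKX cells stably expressing human M2 and GIRK1/4, loaded with voltage-sensitive dye at room temperature; hyperpolarization followed by fluorescence. Each test-substance concentration, added first, combined with an 8-point acetylcholine dose-response; shift of the acetylcholine curve analysed by allosteric EC50 shift model to give cooperativity factor α.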

For assay [2], the target named is T1, human M2 receptor. As to the kind of experiment: Functional M2-GIRK1/4 activation test: allosteric potency (EC50) and efficiency at EC20 acetylcholine. The format is cell-based. To be noted: CHO-DUKX-M2-GIRK cells; for EC50: voltage-sensitive dye, acetylcholine at EC20, in some cases mean of two or more determinations; for Emax: boosting of the acetylcholine effect at EC20 acetylcholine concentration. The procedure, abridged:
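CHO-DUKX cells stably expressing human M2 and GIRK1/4; membrane potential tracked with voltage-sensitive dye at room temperature. Compound added 50 s before acetylcholine at its EC20, then hyperpolarization read 60 s. EC50 (allosteric potency) and efficiency (boost of EC20 ACh effect) from 4-parameter Hill fit.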

The values below come from patent US11472803B2, “7-substituted 1-aryl-naphthyridine-3-carboxylic acid amides and use thereof” (Bayer Aktiengesellschaft, priority 2016, dated 2022).

For orientation: EC50 means the concentration that produces a half-maximal response. As usually defined, the Emax is the size of the effect at its maximum, as opposed to the concentration needed. As for `O=C(NC(C1CC1)C(F)(F)C(F)(F)F)c1cn(-c2c(F)cc(F)cc2F)c2nc(N3CC(CO)(CO)C3)c(F)cc2c1=O` (single isomer, unassigned) [Example 205, 7-[3,3-bis(hydroxymethyl)azetidin-1-yl]-N-[1-cyclopropyl-2,2,3,3,3-pentafluoropropyl]-6-fluoro-4-oxo-1-(2,4,6-trifluorophenyl)-1,4-dihydro-1,8-naphthyridine-3-carboxamide], the “Cooperativity (alpha factor)” value on human M2 receptor [1] stood at 25. At human M2 receptor [2], this compound gave an EC50 of 3.1 nM and an Emax of 100%.

Take `O=C(N[C@@H](C1CC1)C(F)(F)F)c1cn(-c2c(F)cc(F)cc2F)c2nc(N3CC(O)C3)c(F)cc2c1=O` [Example 54, N-[(1S)-1-Cyclopropyl-2,2,2-trifluoroethyl]-6-fluoro-7-(3-hydroxyazetidin-1-yl)-4-oxo-1-(2,4,6-trifluorophenyl)-1,4-dihydro-1,8-naphthyridine-3-carboxamide]: at human M2 receptor [1], the “Cooperativity (alpha factor)” value is listed as 30. Moreover, at human M2 receptor [2], the midpoint of the response, the EC50, lay at 25 nM and the Emax was 100%.

`O=C(NC(C(F)(F)F)C(F)(F)F)c1cn(-c2c(F)cc(F)cc2F)c2nc(N3C[C@@H](O)[C@H](O)C3)c(F)cc2c1=O` [Example 144, 7-[(3R,4R)-3,4-Dihydroxypyrrolidin-1-yl]-6-fluoro-N-(1,1,1,3,3,3-hexafluoropropan-2-yl)-4-oxo-1-(2,4,6-trifluorophenyl)-1,4-dihydro-1,8-naphthyridine-3-carboxamide]: on human M2 receptor [1], the “Cooperativity (alpha factor)” value stood at 67. At human M2 receptor [2], this compound yielded an EC50 of 4.5 nM and an Emax of 98%.

With `CC1(O)CN(c2nc3c(cc2F)c(=O)c(C(=O)N[C@@H](C2CC2)C(F)(F)F)cn3-c2c(F)cc(F)cc2F)C1` [Example 53, N-[(1S)-1-Cyclopropyl-2,2,2-trifluoroethyl]-6-fluoro-7-(3-hydroxy-3-methylazetidin-1-yl)-4-oxo-1-(2,4,6-trifluorophenyl)-1,4-dihydro-1,8-naphthyridine-3-carboxamide], the “Cooperativity (alpha factor)” value at human M2 receptor [1] was determined as 30. At human M2 receptor [2], this compound came in with an EC50 of 16 nM and an Emax of 100%.

`CC(NC(=O)c1cn(-c2c(F)cc(F)cc2F)c2nc(N3CCC[C@@H]3CO)c(F)cc2c1=O)C(F)(F)C(F)(F)F` (single isomer, unassigned) [Example 184]: the “Cooperativity (alpha factor)” value at human M2 receptor [1] worked out at 24. At human M2 receptor [2], this compound yielded an EC50 of 4.5 nM and an Emax of 90%.
